From ChEMBL document CHEMBL1201862, “PubChem BioAssay data set” (2004)
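Growth conditions: 96-well plates. Treatment: test compound, 48 hours, 5 concentrations. Analysis: linear interpolation between bracketing concentrations; unreached endpoints set to highest concentration. GI50 marks 50% less growth.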 The source made the active and inactive calls. No stated cut-off is given here; in the data, active = GI50 up to about 1.1 µM and inactive = higher.

Key:
Assay in all cases: inhibition of tumour cell growth, NCI panel, 48 h
[1] = system: DLD-1
[2] = system: DMS-114
[3] = system: DMS-273
[4] = system: KM-20L2
[5] = system: LXFL 529
[6] = system: M19-MEL
[7] = system: SNB-78
[8] = system: XF498
[9] = system: RXF 631

Row | SMILES | GI50 [1] | GI50 [2] | GI50 [3] | GI50 [4] | GI50 [5] | GI50 [6] | GI50 [7] | GI50 [8] | GI50 [9]
1 | COC[C@@H]1[C@H]2OC(C)(C)O[C@H]2C(=O)N1C(=O)c1ccc(OC)cc1 | > 100 µM (inactive) | > 100 µM (inactive) | > 100 µM (inactive) | > 100 µM (inactive) | > 100 µM (inactive) | > 100 µM (inactive) | > 100 µM (inactive) | > 100 µM (inactive) | 
2 | O=c1c2ccccc2nc(-c2cccc(Cl)c2)n1NC1OC(CO)C(O)C(O)C1O (centres undefined) |  | > 100 µM (inactive) | > 100 µM (inactive) | > 100 µM (inactive) | > 100 µM (inactive) | > 100 µM (inactive) | > 100 µM (inactive) | > 100 µM (inactive) | > 100 µM (inactive)
3 | CCOC(=O)[C@@]12C(C)=CC(=O)O[C@]1(C)C[C@H]2C#N | > 100 µM (inactive) | > 100 µM (inactive) | > 100 µM (inactive) | > 100 µM (inactive) | > 100 µM (inactive) | > 100 µM (inactive) | > 100 µM (inactive) |  | 
4 | Cc1ccc2c(c1)CN1c3ccc(C)cc3CN2C1c1ccccc1O | 26.5 µM (inactive) | 16.8 µM (inactive) | 13.5 µM (inactive) |  | 48.8 µM (inactive) | 41.1 µM (inactive) | 67.1 µM (inactive) |  | 
5 | O=C1C=C(Nc2ccc(Cl)cc2C(=O)c2ccccc2)c2ccccc2C1=O | > 100 µM (inactive) | > 100 µM (inactive) | > 100 µM (inactive) | > 100 µM (inactive) | > 100 µM (inactive) |  | > 100 µM (inactive) | > 100 µM (inactive) | > 100 µM (inactive)
6 | Nc1nc(N)c(-c2ccccc2)c(C(=O)Nc2ccc(Cl)c(Cl)c2)n1 | > 100 µM (inactive) | > 100 µM (inactive) | > 100 µM (inactive) | > 100 µM (inactive) | > 100 µM (inactive) | > 100 µM (inactive) | > 100 µM (inactive) |  | > 100 µM (inactive)
7 | O=C1C(c2ccccc2)=C(c2ccccc2)C(c2ccc(-c3ccc(C4=C(c5ccccc5)C(=O)C(c5ccccc5)=C4c4ccccc4)cc3)cc2)=C1c1ccccc1 | > 100 µM (inactive) | > 100 µM (inactive) | > 100 µM (inactive) | > 100 µM (inactive) | > 100 µM (inactive) | > 100 µM (inactive) |  | > 100 µM (inactive) | > 100 µM (inactive)
8 | O=C(N/N=C/c1cc(Cl)cc(Cl)c1O)c1ccncc1 |  |  |  | 37.3 µM (inactive) |  |  |  |  | 
9 | CC[C@@H](C)[C@H]([C@H](CC(=O)N1CCC[C@@H]1[C@@H](OC)[C@H](C)C(=O)N[C@H](Cc1ccccc1)c1nccs1)OC)N(C)C(=O)[C@H](NC(=O)[C@@H](C(C)C)N(C)C)C(C)C | 0.000387 µM (active) | 0.000288 µM (active) | 0.000159 µM (active) | 6.79e-05 µM (active) | 0.000502 µM (active) | 0.000208 µM (active) | 0.00108 µM (active) |  | 0.000461 µM (active)
10 | Cc1cccc(NC(=O)C(=O)Cc2nc3ccccc3nc2O)c1C | > 100 µM (inactive) | > 100 µM (inactive) |  | > 100 µM (inactive) | > 100 µM (inactive) | > 100 µM (inactive) | > 100 µM (inactive) | > 100 µM (inactive) | 
11 | COC(=O)N/N=C(/c1nc2ccc([N+](=O)[O-])cc2nc1O)C(O)c1ccc(OC)c(OC)c1 (centres undefined) | > 100 µM (inactive) | 24.7 µM (inactive) | 25 µM (inactive) | > 100 µM (inactive) | 87.1 µM (inactive) | > 100 µM (inactive) | 28.4 µM (inactive) | 59.2 µM (inactive) | 44.5 µM (inactive)
12 | O=C1CC2CC=C[C@H]3c4cc5c(cc4C(=O)N1C23)OCO5 (some centres undefined) | > 50 µM (inactive) | > 50 µM (inactive) | > 50 µM (inactive) | > 50 µM (inactive) | > 50 µM (inactive) | > 50 µM (inactive) | > 50 µM (inactive) |  | 
13 | COc1ccc(C2CC(C)=Nc3c(O)nc(S)nc3N2)cc1 (centres undefined) |  | 21 µM (inactive) | 16.7 µM (inactive) | 16.7 µM (inactive) | 16.6 µM (inactive) | 16.9 µM (inactive) | 46.7 µM (inactive) | 24.8 µM (inactive) | 25.6 µM (inactive)
14 | CN(C)CCNc1ccc(CO)c2sc3ccc(O)cc3c(=O)c12 | 3.52 µM (inactive) | 0.681 µM (active) | 0.615 µM (active) | 6.41 µM (inactive) | 4.88 µM (inactive) | 3.08 µM (inactive) | 14.4 µM (inactive) | 4.92 µM (inactive) | 
15 | CC1CN1C(=O)NCCCCCCNC(=O)N1CC1C (centres undefined) | > 100 µM (inactive) | > 36.2 µM (inactive) | 25.6 µM (inactive) | > 100 µM (inactive) | > 100 µM (inactive) | > 100 µM (inactive) |  | > 100 µM (inactive) | 
16 | COc1ccc2c(c1)C=C([N+](=O)[O-])C(C1OC(C)(C)OC1C1COC(C)(C)O1)O2 (centres undefined) | 1.51 µM (inactive) | 2.88 µM (inactive) | 2.9 µM (inactive) | 5.08 µM (inactive) | 3.81 µM (inactive) | 1.63 µM (inactive) | 2.79 µM (inactive) | 11 µM (inactive) | 
17 | O=C1c2ccccc2C(=O)c2sc(Nc3ccccc3Cl)nc21 | 4.68 µM (inactive) |  | 13.5 µM (inactive) | 20.7 µM (inactive) | 2.27 µM (inactive) | 1.62 µM (inactive) | 13.9 µM (inactive) | 16 µM (inactive) | 18 µM (inactive)
18 | CN(C)CCN(C)CC1COC(C)(C)O1 (centres undefined) | > 100 µM (inactive) |  | > 100 µM (inactive) | > 100 µM (inactive) | > 100 µM (inactive) | > 100 µM (inactive) | > 100 µM (inactive) | > 100 µM (inactive) | 
19 | Cc1cccc(/C=N/C23CC4CC(CC(C4)C2)C3)c1 | > 100 µM (inactive) | > 100 µM (inactive) | > 100 µM (inactive) | > 100 µM (inactive) |  | > 100 µM (inactive) | > 100 µM (inactive) | > 100 µM (inactive) | 
20 | CCCCCCCCCCCCCCCCCCOCC(COP(=O)([O-])OCC[N+](C)(C)C)OC (centres undefined) [EDELFOSINE] | 5.09 µM (inactive) | 13.4 µM (inactive) | 3.03 µM (inactive) | 2.9 µM (inactive) |  | 4.58 µM (inactive) | 19.3 µM (inactive) | 11.2 µM (inactive) | 
21 | COc1ccc(/C=C/c2cc(OC)c(O[Si](C)(C)C(C)(C)C)c(OC)c2)cc1 | > 100 µM (inactive) | 14 µM (inactive) | 67 µM (inactive) | > 100 µM (inactive) | > 100 µM (inactive) | 46.5 µM (inactive) |  | > 100 µM (inactive) | 73.1 µM (inactive)
22 | COc1cc(Br)c(CC2NCCc3cc(OC)c(OC)cc32)cc1OC (centres undefined) | > 100 µM (inactive) |  |  | 41.2 µM (inactive) | 36.7 µM (inactive) | 95.7 µM (inactive) | > 100 µM (inactive) | 11.7 µM (inactive) | 
